These results are taken from patent US11649255B2, “Indazoles as hematopoietic progenitor kinase 1 (HPK1) inhibitors and methods using same” (1st Biotherapeutics, Inc., priority 2020, dated 2023).

The IC50 is the concentration needed to halve the response being measured.

The structures appear in SMILES notation.

Chain of recombinant human HPK1 (Q92918 whole entry): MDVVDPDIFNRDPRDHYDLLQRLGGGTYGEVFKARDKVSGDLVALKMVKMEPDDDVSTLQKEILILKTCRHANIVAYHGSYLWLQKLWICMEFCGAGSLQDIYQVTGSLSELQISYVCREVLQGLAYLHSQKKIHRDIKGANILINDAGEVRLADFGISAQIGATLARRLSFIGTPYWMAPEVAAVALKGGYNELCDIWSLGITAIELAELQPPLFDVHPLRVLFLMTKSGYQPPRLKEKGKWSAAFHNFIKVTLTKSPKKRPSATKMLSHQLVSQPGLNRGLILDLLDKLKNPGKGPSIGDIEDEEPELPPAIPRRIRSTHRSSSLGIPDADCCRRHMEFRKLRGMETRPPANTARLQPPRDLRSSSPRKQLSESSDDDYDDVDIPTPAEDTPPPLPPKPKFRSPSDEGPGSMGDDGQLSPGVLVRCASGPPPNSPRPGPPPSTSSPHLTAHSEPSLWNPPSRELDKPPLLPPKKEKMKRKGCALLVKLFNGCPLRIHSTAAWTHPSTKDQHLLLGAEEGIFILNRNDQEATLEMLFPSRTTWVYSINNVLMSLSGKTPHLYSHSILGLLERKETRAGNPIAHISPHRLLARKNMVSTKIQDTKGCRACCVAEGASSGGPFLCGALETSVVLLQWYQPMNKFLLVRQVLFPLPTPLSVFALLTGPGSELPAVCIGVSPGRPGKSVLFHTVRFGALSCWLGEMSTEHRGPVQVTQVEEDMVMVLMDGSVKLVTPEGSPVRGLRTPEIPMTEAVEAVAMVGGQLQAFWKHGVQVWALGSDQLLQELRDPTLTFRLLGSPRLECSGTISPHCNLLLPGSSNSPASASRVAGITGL

The assay concerns the target recombinant human HPK1 (Homo sapiens (Human), UniProt Q92918). Put plainly: HPK1 kinase assay (ADP-Glo). The format is biochemical. The settings on record: 25 μM ATP, MBP substrate. In short, it runs like this:
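Activity was read as ADP formed, detected by ADP-Glo luminescence after the reaction of 5 ng recombinant human HPK1 with MBP and ATP (stocks 0.5 μg/μl and 25 μM) for 40 min at 30 °C. Buffer was Tris pH 7.5 with MgCl2, BSA and DTT, with compound in 0.5% DMSO. IC50 came from inhibition curves.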
Turning to `O=C(Nc1nc2ccc(-c3ccc(Cl)c4[nH]ncc34)cc2s1)C1CC1` [Example 19, N-(6-(7-chloro-1H-indazol-4-yl)benzo[d]thiazol-2-yl)cyclopropanecarboxamide], the IC50 is over 1 µM.

Consider `Cc1c(F)c(Cl)c(-c2ccc3nc(NC(=O)[C@@H]4C[C@@H]4F)sc3n2)c2cn[nH]c12` [Example 211, (1S,2S)-N-(5-(5-chloro-6-fluoro-7-methyl-1H-indazol-4-yl)thiazolo[5,4-b]pyridin-2-yl)-2-fluorocyclopropane-1-carboxamide], for which the IC50 is under 0.1 µM.

Regarding `CN(C)c1ccc(-c2ccc3nc(NC(=O)[C@@H]4C[C@@H]4F)sc3n2)c2cn[nH]c12` [Example 216, (1S,2S)-N-(5-(7-(dimethylamino)-1H-indazol-4-yl)thiazolo[5,4-b]pyridin-2-yl)-2-fluorocyclopropane-1-carboxamide], the IC50 was over 1 µM.

Turning to `O=C(O)c1c(F)c(Cl)c(-c2ccn3nc(NC(=O)[C@@H]4C[C@@H]4F)cc3c2)c2cn[nH]c12` [Example 551, 5-chloro-6-fluoro-4-(2-((1S,2S)-2-fluorocyclopropane-1-carboxamido)pyrazolo[1,5-a]pyridin-5-yl)-1H-indazole-7-carboxylic acid], the IC50 was over 1 µM.

Consider `CC(=O)NCCSc1c(F)c(Cl)c(-c2ccc3nc(NC(=O)[C@@H]4C[C@@H]4F)sc3c2)c2cn[nH]c12` [Example 73, (1S,2S)-N-(6-(7-((2-acetamidoethyl)thio)-5-chloro-6-fluoro-1H-indazol-4-yl)benzo[d]thiazol-2-yl)-2-fluorocyclopropane-1-carboxamide], for which the IC50 is under 0.1 µM.

As to `CNC1CCC(Nc2c(F)c(Cl)c(-c3ccn4nc(NC(=O)[C@@H]5C[C@@H]5F)cc4c3)c3cn[nH]c23)CC1` (stereo partly drawn) [Example 508, (1S,2S)-N-(5-(5-chloro-6-fluoro-7-((4-(methylamino)cyclohexyl)amino)-1H-indazol-4-yl)pyrazolo[1,5-a]pyridin-2-yl)-2-fluorocyclopropane-1-carboxamide], the half-maximal inhibitory concentration (IC50) was under 0.1 µM.

`CCc1c(F)c(C(F)(F)F)c2[nH]ncc2c1-c1ccc2nc(NC(=O)[C@@H]3C[C@@H]3F)cn2c1` [Example 339, (1S,2S)-N-(6-(5-ethyl-6-fluoro-7-(trifluoromethyl)-1H-indazol-4-yl)imidazo[1,2-a]pyridin-2-yl)-2-fluorocyclopropane-1-carboxamide]: the IC50 was under 0.1 µM.

Consider `O=C(Nc1cn2cc(-c3c(Cl)c(F)c(N4CCCC4)c4[nH]ncc34)ccc2n1)[C@@H]1C[C@@H]1F` [Example 282, (1S,2S)-N-(6-(5-chloro-6-fluoro-7-(pyrrolidin-1-yl)-1H-indazol-4-yl)imidazo[1,2-a]pyridin-2-yl)-2-fluorocyclopropane-1-carboxamide], for which the IC50 is under 0.1 µM.

For the compound `CCOc1c(F)c(C)c(-c2ccc3nc(NC(=O)[C@@H]4C[C@@H]4F)sc3c2)c2cn[nH]c12` [Example 98, (1S,2S)-N-(6-(7-ethoxy-6-fluoro-5-methyl-1H-indazol-4-yl)benzo[d]thiazol-2-yl)-2-fluorocyclopropanecatboxamide], the IC50 was under 0.1 µM.

Turning to `CN(CC(F)(F)F)C(=O)c1c(F)c(Cl)c(-c2ccc3nc(NC(=O)[C@@H]4C[C@@H]4F)cn3c2)c2cn[nH]c12` [Example 347, 5-chloro-6-fluoro-4-(2-((1S,2S)-2-fluorocyclopropane-1-carboxamido)imidazo[1,2-a]pyridin-6-yl)-N-methyl-N-(2,2,2-trifluoroethyl)-1H-indazole-7-carboxamide], the IC50 is under 0.1 µM.

Take `COc1cc(C)c(-c2ccc3nc(NC(=O)[C@@H]4C[C@@H]4F)sc3c2)c2cn[nH]c12` [Example 96, (1S,2S)-2-fluoro-N-(6-(7-methoxy-5-methyl-1H-indazol-4-yl)benzo[d]thiazol-2-yl)cyclopropanecarboxamide]: the half-maximal inhibitory concentration (IC50) was under 0.1 µM.

On to `CO[C@H](C)[C@@H](OC)c1c(F)c(Cl)c(-c2ccn3nc(NC(=O)[C@@H]4C[C@@H]4F)cc3c2)c2cn[nH]c12` [Example 666, (1S,2S)-N-(5-(5-chloro-7-((1S,2R)-1,2-dimethoxypropyl)-6-fluoro-1H-indazol-4-yl)pyrazolo[1,5-a]pyridin-2-yl)-2-fluorocyclopropane-1-carboxamide], for which the IC50 lay in the range of 0.101 to 0.5 µM.

`Cc1c(F)c(N(C)CCO)c2[nH]ncc2c1-c1ccc2nc(NC(=O)[C@@H]3C[C@@H]3F)sc2n1` [Example 204, (1S,2S)-2-fluoro-N-(5-(6-fluoro-7-((2-hydroxyethyl)(methyl)amino)-5-methyl-1H-indazol-4-yl)thiazolo[5,4-b]pyridin-2-yl)cyclopropane-1-carboxamide]: the concentration for half-maximal inhibition (IC50) was under 0.1 µM.

For the compound `CN(c1ncccn1)c1c(F)c(Cl)c(-c2ccc3nc(NC(=O)[C@@H]4C[C@@H]4F)cn3c2)c2cn[nH]c12` [Example 346, (1S,2S)-N-(6-(5-chloro-6-fluoro-7-(methyl(pyrimidin-2-yl)amino)-1H-indazol-4-yl)imidazo[1,2-a]pyridin-2-yl)-2-fluorocyclopropane-1-carboxamide], the IC50 was under 0.1 µM.

With `O=C(Nc1nc2ccc(-c3c(C(F)(F)F)c(F)c(Cl)c4[nH]ncc34)nc2s1)[C@@H]1C[C@@H]1F` [Example 198, (1S,2S)-N-(5-(7-chloro-6-fluoro-5-(trifluoromethyl)-1H-indazol-4-yl)thiazolo[5,4-b]pyridin-2-yl)-2-fluorocyclopropane-1-carboxamide], the IC50 is under 0.1 µM.

On to `COC[C@@H](C)c1c(F)c(Cl)c(-c2ccn3nc(NC(=O)[C@@H]4C[C@@H]4F)cc3c2)c2cn[nH]c12` [Example 656, (1S,2S)-N-(5-(5-chloro-6-fluoro-7-((S)-1-methoxypropan-2-yl)-1H-indazol-4-yl)pyrazolo[1,5-a]pyridin-2-yl)-2-fluorocyclopropane-1-carboxamide], for which the concentration for half-maximal inhibition (IC50) is under 0.1 µM.

Take `C=CC(=O)Nc1c(F)c(Cl)c(-c2ccc3nc(NC(=O)[C@@H]4C[C@@H]4F)sc3c2)c2cn[nH]c12` [Example 72, (1S,2S)-N-(6-(7-acrylamido-5-chloro-6-fluoro-1H-indazol-4-yl)benzo[d]thiazol-2-yl)-2-fluorocyclopropane-1-carboxamide]: the IC50 lay in the range of 0.101 to 0.5 µM.

As to `O=C(Nc1cn2cc(-c3c(Br)ccc4[nH]ncc34)ccc2n1)C1CC1` [Example 228, N-(6-(5-bromo-1H-indazol-4-yl)imidazo[1,2-a]pyridin-2-yl)cyclopropanecarboxamide], the IC50 was over 1 µM.

`O=C(Nc1cc2cc(-c3c(Cl)c(F)c(NCC4CC4)c4[nH]ncc34)ccn2n1)[C@@H]1C[C@@H]1F` [Example 654, (1S,2S)-N-(5-(5-chloro-7-((cyclopropylmethyl)amino)-6-fluoro-1H-indazol-4-yl)pyrazolo[1,5-a]pyridin-2-yl)-2-fluorocyclopropane-1-carboxamide]: the half-maximal inhibitory concentration (IC50) is under 0.1 µM.

For `CC(C)Nc1c(F)c(Cl)c(-c2ccn3nc(NC(=O)[C@@H]4C[C@@H]4F)cc3c2)c2cn[nH]c12` [Example 619, (1S,2S)-N-(5-(5-chloro-6-fluoro-7-(isopropylamino)-1H-indazol-4-yl)pyrazolo[1,5-a]pyridin-2-yl)-2-fluorocyclopropane-1-carboxamide], the IC50 was under 0.1 µM.

As for `Cc1c(F)c(C(=O)N(C)C)c2[nH]ncc2c1-c1ccc2nc(NC(=O)[C@@H]3C[C@@H]3F)sc2n1` [Example 197, 6-fluoro-4-(2-((1S,2S)-2-fluorocyclopropane-1-carboxamido)thiazolo[5,4-b]pyridin-5-yl)-N,N,5-trimethyl-1H-indazole-7-carboxamide], the IC50 is under 0.1 µM.

`CNc1c(F)c(Cl)c(-c2ccn3nc(NC(=O)[C@@H]4C[C@@H]4F)cc3c2)c2cn[nH]c12` [Example 494, (1S,2S)-N-(5-(5-chloro-6-fluoro-7-(methylamino)-1H-indazol-4-yl)pyrazolo[1,5-a]pyridin-2-yl)-2-fluorocyclopropane-1-carboxamide]: the IC50 is under 0.1 µM.

`CC(=O)c1c(F)c(Cl)c(-c2ccc3nc(NC(=O)[C@@H]4C[C@@H]4F)cn3c2)c2cn[nH]c12` [Example 319, (1S,2S)-N-(6-(7-acetyl-5-chloro-6-fluoro-1H-indazol-4-yl)imidazo[1,2-a]pyridin-2-yl)-2-fluorocyclopropane-1-carboxamide]: the IC50 was under 0.1 µM.

As to `Cc1c(F)c(C(F)F)c2[nH]ncc2c1-c1ccc2nc(NC(=O)[C@@H]3C[C@@H]3F)cn2c1` [Example 343, (1S,2S)-N-(6-(7-(difluoromethyl)-6-fluoro-5-methyl-1H-indazol-4-yl)imidazo[1,2-a]pyridin-2-yl)-2-fluorocyclopropane-1-carboxamide], the IC50 is under 0.1 µM.

Regarding `C[S+]([O-])c1c(F)c(Cl)c(-c2ccn3nc(NC(=O)[C@@H]4C[C@@H]4F)cc3c2)c2cn[nH]c12` (stereo partly drawn) [Example 538, (1S,2S)-N-(5-(5-chloro-6-fluoro-7-(methylsulfinyl)-1H-indazol-4-yl)pyrazolo[1,5-a]pyridin-2-yl)-2-fluorocyclopropane-1-carboxamide], the IC50 is under 0.1 µM.

Turning to `CN(C)C(=O)c1c(F)cc2[nH]ncc2c1-c1ccc2nc(NC(=O)[C@@H]3C[C@@H]3F)sc2c1` [Example 145, 6-fluoro-4-(2-((1S,2S)-2-fluorocyclopropane-1-carboxamido)benzo[d]thiazol-6-yl)-N,N-dimethyl-1H-indazole-5-carboxamide], the IC50 is over 1 µM.

Regarding `COC1CN(c2c(F)c(Cl)c(-c3ccn4nc(NC(=O)[C@@H]5C[C@@H]5F)cc4c3)c3cn[nH]c23)C1` [Example 624, (1S,2S)-N-(5-(5-chloro-6-fluoro-7-(3-methoxyazetidin-1-yl)-1H-indazol-4-yl)pyrazolo[1,5-a]pyridin-2-yl)-2-fluorocyclopropane-1-carboxamide], the half-inhibitory concentration (IC50) was under 0.1 µM.

Regarding `CNC(=O)OCCSc1c(F)c(C)c(-c2ccn3nc(NC(=O)[C@@H]4C[C@@H]4F)cc3c2)c2cn[nH]c12` [Example 546, 2-((6-fluoro-4-(2-((1S,2S)-2-fluorocyclopropane-1-carboxamido)pyrazolo[1,5-a]pyridin-5-yl)-5-methyl-1H-indazol-7-yl)thio)ethyl methylcarbamate], the half-maximal inhibitory concentration (IC50) is under 0.1 µM.
